Columns and labels:
σ2-receptor = target: T1, σ2-receptor (Mus musculus, UniProt Q8VD00); test: Sigma-2 receptor binding, [3H]-DTG, brains from σ1 knockout mice; design: % Binding σ2: dose or concentration left out as unconfirmed
T1 construct: brains from sigma receptor type I (σ1) knockout mice were homogenized; from tissue; host or cells: brain membranes of σ1 knockout mice
T1 sequence (Q8VD00 1-176): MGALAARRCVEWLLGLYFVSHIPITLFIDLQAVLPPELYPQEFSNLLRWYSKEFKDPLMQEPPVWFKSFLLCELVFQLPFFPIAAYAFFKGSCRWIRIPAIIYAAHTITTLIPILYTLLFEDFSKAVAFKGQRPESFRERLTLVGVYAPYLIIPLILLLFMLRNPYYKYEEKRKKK
Experimental: Binding studies for σ2-receptor were performed as described ([…] et al., 1991) with some modifications. In brief, brains from sigma receptor type I (σ1) knockout mice were homogenized in a volume of 10 mL/g tissue net weight of ice-cold 10 mM Tris-HCl, pH 7.4, containing 320 mM sucrose (Tris-sucrose buffer) with a Potter-Elvehjem homogenizer (10 strokes at 500 r.p.m.) The homogenates were then centrifuged at 1000 g for […] at 4° C., and the supernatants were saved. The pellets were resuspended by vortexing in 2 mL/g ice-cold Tris-sucrose buffer and centrifuged again at 1000 g for 10 min. The combined 1000 g supernatants were centrifuged at 31000 g for 15 min at 4° C. The pellets were resuspended by vortexing in 3 mL/g 10 mM Tris-HCl, pH 7.4, and the suspension was kept at 25° C. for 15 min. Following centrifugation at 31000 g for 15 min, the pellets were resuspended by gentle Potter Elvehjem homogenization to a volume of 1.53 mL/g in 10 mM Tris-HCl pH 7.4. The assay tubes contained 10 μL of [^3H]-DTG (final concentration of 3 nM), 400 μL of the tissue suspension (5.3 mL/g in 50 mM Tris-HCl, pH 8.0) to a final assay volume of 0.5 mL. […] The amount of bound radioactivity was determined by liquid scintillation spectrometry using a Wallac Winspectral 1414 liquid scintillation counter. Protein concentrations were determined by the method of Lowry et al. (1951).

[1] = test system: capsaicin-induced mechanical allodynia; test: Effect on capsaicin in development of mechanical allodynia (von Frey filaments); type: in vivo; settings: mice
Experimental: This model uses the von-Frey Filaments and is a model to test the effects or symptoms of neuropathic pain, allodynia etc.
• The injection of 1 μg of capsaicin to experimental animals produces acute pain followed by hyperalgesia/allodynia • The mechanisms involved in capsaicin-induced acute pain and hyperalgesia are relatively well known (mainly activation of peripheral nociceptors and sensitization of spinal cord neurons, respectively)
After habituation mice were according to FIG. 1 first treated with the test-compound (or solvent in controls). Then 1 μg capsaicin (1% DMSO) is injected into their paw resulting in developing pain in the effected paw. The effected paw is then treated with a mechanical stimulus and the latency time before the paw is withdrawn is measured.

σ1-receptor = target: T2, σ1-receptor (Cavia porcellus, UniProt Q60492); test: Sigma-1 receptor binding, [3H](+)-pentazocine, brain membranes; design: species or system guinea pig; settings: for inhibition at 0.1 µM: 10^−7 M
T2 construct: guinea pig brains were homogenized; from tissue; host or cells: guinea pig brain membranes
T2 sequence (Q60492 whole entry): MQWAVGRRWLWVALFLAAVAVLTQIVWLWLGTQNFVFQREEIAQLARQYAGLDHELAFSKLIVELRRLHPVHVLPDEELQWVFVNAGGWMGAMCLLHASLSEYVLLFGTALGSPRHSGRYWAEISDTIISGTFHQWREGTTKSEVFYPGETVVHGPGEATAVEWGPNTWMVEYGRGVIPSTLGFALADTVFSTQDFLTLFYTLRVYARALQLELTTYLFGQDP
Experimental: Brain membrane preparation and binding assays for the σ1-receptor were performed as described (DeHaven-Hudkins et al., 1992) with some modifications. In brief, guinea pig brains were homogenized in 10 vols. (w/v) of Tris-HCl 50 mM 0.32 M sucrose, pH 7.4, with a Kinematica Polytron PT 3000 at 15000 r.p.m. for 30 s. The homogenate was centrifuged at 1000 g for […] at 4° C. and the supernatants collected and centrifuged again at 48000 g for 15 min at 4° C. The pellet was resuspended in 10 volumes of Tris-HCl buffer (50 mM, pH 7.4), incubated at 37° C. for 30 min, and centrifuged at 48000 g for 20 min at 4° C. Following this, the pellet was resuspended in fresh Tris-HCl buffer (50 mM, pH 7.4) and stored on ice until use.
Each assay tube contained 10 μL of [^3H](+)-pentazocine (final concentration of 0.5 nM), 900 μL of the tissue suspension to a final assay volume of 1 mL and a final tissue concentration of approximately 30 mg tissue net weight/mL. […] All tubes were incubated at 37° C. for 150 min before termination of the reaction by rapid filtration over Schleicher & Schuell GF 3362 glass fibre filters [previously soaked in a solution of 0.5% polyethylenimine for at least 1 h]. Filters were then washed with four times with 4 mL of cold Tris-HCl buffer (50 mM, pH 7.4). Following addition of scintillation cocktail, the samples were allowed to equilibrate overnight. The amount of bound radioactivity was determined by liquid scintillation spectrometry using a Wallac Winspectral 1414 liquid scintillation counter. Protein concentrations were determined by the method of Lowry et al. (1951).

psychosis = settings: cited from earlier work
sigma (σ-2) site = sigma (σ-2) site (Homo sapiens, UniProt Q5BJF2); settings: cited from earlier work
Chain of sigma (σ-2) site (Q5BJF2 whole entry): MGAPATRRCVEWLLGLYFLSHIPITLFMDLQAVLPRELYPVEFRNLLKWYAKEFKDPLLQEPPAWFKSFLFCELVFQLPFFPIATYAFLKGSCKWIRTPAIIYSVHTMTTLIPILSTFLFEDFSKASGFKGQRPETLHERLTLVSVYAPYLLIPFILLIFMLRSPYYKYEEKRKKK

sigma 1 (σ-1) site = sigma 1 (σ-1) site (Homo sapiens, UniProt Q99720); settings: cited from earlier work
Chain of sigma 1 (σ-1) site (Q99720 whole entry): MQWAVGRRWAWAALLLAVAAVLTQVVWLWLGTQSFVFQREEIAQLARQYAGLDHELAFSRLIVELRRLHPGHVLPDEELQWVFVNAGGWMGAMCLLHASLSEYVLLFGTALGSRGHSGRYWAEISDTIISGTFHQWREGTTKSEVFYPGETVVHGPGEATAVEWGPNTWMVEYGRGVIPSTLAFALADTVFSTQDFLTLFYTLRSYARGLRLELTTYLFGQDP

Cc1cc(OCCN2CCOCC2)nn1-c1ccc(Cl)c(Cl)c1 [Example 1, 4-{2-(1-(3,4-Dichlorophenyl)-5-methyl-1H pyrazol-3-yloxy)ethyl}morpholine]
% Binding σ2 (σ2-receptor): 3.7%
Ki (σ2-receptor): > 10000 nM
analgesia in capsaicin-induced neuropathic pain, dose dependency (FIG. 2) ([1]; 1 μg capsaicin into paw, von Frey filaments): dose dependency of the treatment
efficacy depending on the force of the von-Frey filaments (FIG. 3) ([1]; 1 μg capsaicin, 0.5 g typically in the range of neuropathic pain/allodynia): effective specifically in neuropathic pain or mechanical allodynia
melting point: 179 to 182 °C

Cl.Clc1ccc(-n2nc(OCCN3CCCC3)cc2-c2ccccc2)cc1Cl [Example 17, 1-(3,4-Dichlorophenyl)-5-phenyl-3-[2-(pyrrolidin-1-yl)ethoxy]-1H-pyrazole hydrochloride]
inhibition at 0.1 µM (σ1-receptor): 47.3%
melting point: 137 to 147 °C

Cl.Clc1ccc(-n2nc(OCCN3CCc4ccccc4C3)cc2-c2ccccc2)cc1Cl [Example 21, 2-{2-[1-(3,4-Dichlorophenyl)-5-phenyl-1H-pyrazol-3-yloxy]ethyl}-1,2,3,4-tetrahydroisoquinoline hydrochloride]
inhibition at 0.1 µM (σ1-receptor): 45.5%
melting point: 185 to 189 °C

Cc1cc(OCCCCN2CCOCC2)nn1-c1ccc(Cl)c(Cl)c1.Cl [Example 22, 4-{4-[1-(3,4-Dichlorophenyl)-5-methyl-1H-pyrazol-3-yloxy]butyl}morpholine hydrochloride]
Ki (σ1-receptor): 2.5 nM
inhibition at 0.1 µM (σ1-receptor): 97%
melting point: 150 to 154 °C

Cc1cc(OCCCCN2CCCCC2)nn1-c1ccc(Cl)c(Cl)c1.Cl [Example 24, 1-{4-[1-(3,4-Dichlorophenyl)-5-methyl-1H-pyrazol-3-yloxy]butyl}piperidine hydrochloride]
Ki (σ1-receptor): 0.5 nM
inhibition at 0.1 µM (σ1-receptor): 110%
melting point: 156 to 161 °C

Cc1cc(OCCCCN2CCN(C)CC2)nn1-c1ccc(Cl)c(Cl)c1.Cl.Cl [Example 25, 1-{4-[1-(3,4-Dichlorophenyl)-5-methyl-1H-pyrazol-3-yloxy]butyl}-4-methylpiperazine dihydrochloride]
Ki (σ1-receptor): 3.9 nM
inhibition at 0.1 µM (σ1-receptor): 94.2%
melting point: 181 to 185 °C

Cc1cc(OCCCCN2CCC(c3ccccc3)CC2)nn1-c1ccc(Cl)c(Cl)c1.Cl [Example 28, 1-{4-[1-(3,4-dichlorophenyl)-5-methyl-1H-pyrazol-3-yloxy]butyl}-4-phenylpiperidine hydrochloride]
inhibition at 0.1 µM (σ1-receptor): 95.1%
melting point: 166 to 170 °C

CC(C)c1cc(OCCN2CCOCC2)nn1-c1ccc(Cl)c(Cl)c1.Cl [Example 31, 4-{2-[1-(3,4-dichlorophenyl)-5-isopropyl-1H-pyrazol-3-yloxy]ethyl}morpholine hydrochloride]
inhibition at 0.1 µM (σ1-receptor): 68.6%
melting point: 195 to 197 °C

CC(C)c1cc(OCCN2CCCC2)nn1-c1ccc(Cl)c(Cl)c1.Cl [Example 33, 1-(3,4-Dichlorophenyl)-5-isopropyl-3-[2-(pyrrolidin-1-yl)ethoxy]-1H-pyrazole hydrochloride]
inhibition at 0.1 µM (σ1-receptor): 87.1%
melting point: 138 to 142 °C

CC(C)c1cc(OCCCN2CCCC2)nn1-c1ccc(Cl)c(Cl)c1.Cl [Example 34, 1-(3,4-Dichlorophenyl)-5-isopropyl-3-[3-(pyrrolidin-1-yl)propoxy]-1H-pyrazole hydrochloride]
Ki (σ1-receptor): 12.4 nM
inhibition at 0.1 µM (σ1-receptor): 104%
melting point: 152 to 156 °C

CC(C)c1cc(OCCN2CCc3ccccc3C2)nn1-c1ccc(Cl)c(Cl)c1.Cl [Example 36, 2-{2-[1-(3,4-dichlorophenyl)-5-isopropyl-1H-pyrazol-3-yloxy]ethyl}-1,2,3,4-tetrahydroisoquinoline hydrochloride]
inhibition at 0.1 µM (σ1-receptor): 52.7%
melting point: 186 to 191 °C

Cc1cc(OCCN2CCCCC2)nn1-c1ccc2ccccc2c1.Cl [Example 63, 1-{2-[5-Methyl-1-(naphthalen-2-yl)-1H-pyrazol-3-yloxy]ethyl}piperidine hydrochloride]
inhibition at 0.1 µM (σ1-receptor): 105%
melting point: 198 to 202 °C

Cc1cc(OCCN2CCCC2)nn1-c1ccc2ccccc2c1.Cl [Example 64, 5-Methyl-1-(naphthalen-2-yl)-3-[2-(pyrrolidin-1-yl)ethoxy]-1H-pyrazole hydrochloride]
inhibition at 0.1 µM (σ1-receptor): 105%
melting point: 170 to 171 °C

C[C@@H]1CN(CCCn2c3ccccc3c3ccccc32)C[C@H](C)N1 [rimcazole]
clinical effects in the treatment of psychosis (psychosis): clinically shows effects in the treatment of psychosis

SKF 10047
affinity for the sigma (σ-2) site (sigma (σ-2) site): micromolar affinity
affinity for the sigma 1 (σ-1) site (sigma 1 (σ-1) site): nanomolar affinity
